# In PubChem BioAssay (NCI):
#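 Here, GI50 denotes the concentration required for 50% inhibition of growth. Definition used: TGI = concentration required for complete inhibition of growth.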
# Tests used:
# Assay in all cases: NCI anticancer screen, dose series, 384-well format
# HL-60(TB) leukemia = test system: HL-60(TB) leukemia
# MOLT-4 leukemia = test system: MOLT-4 leukemia
# 786-0 renal = test system: 786-0 renal
# A498 renal = test system: A498 renal
# A549 NSCLC = test system: A549 NSCLC
# ACHN renal = test system: ACHN renal
# BT-549 breast = test system: BT-549 breast
# CAKI-1 renal = test system: CAKI-1 renal
# CCRF-CEM leukemia = test system: CCRF-CEM leukemia
# COLO 205 colon = test system: COLO 205 colon
# DU-145 prostate = test system: DU-145 prostate
# HCC-2998 colon = test system: HCC-2998 colon
# HCT-116 colon = test system: HCT-116 colon
# HCT-15 colon = test system: HCT-15 colon
# HOP-62 NSCLC = test system: HOP-62 NSCLC
# HOP-92 NSCLC = test system: HOP-92 NSCLC
# HT29 colon = test system: HT29 colon
# IGROV1 ovarian = test system: IGROV1 ovarian
# K-562 leukemia = test system: K-562 leukemia
# KM12 colon = test system: KM12 colon
# LOX IMVI melanoma = test system: LOX IMVI melanoma
# M14 melanoma = test system: M14 melanoma
# MALME-3M melanoma = test system: MALME-3M melanoma
# MCF7 breast = test system: MCF7 breast
# MDA-MB-435 melanoma = test system: MDA-MB-435 melanoma
# MDA-MB-468 breast = test system: MDA-MB-468 breast
# NCI-H226 lung = test system: NCI-H226 lung
# NCI-H23 lung = test system: NCI-H23 lung
# NCI-H322M lung = test system: NCI-H322M lung
# NCI-H460 NSCLC = test system: NCI-H460 NSCLC
# NCI-H522 lung = test system: NCI-H522 lung
# NCI/ADR-RES ovarian = test system: NCI/ADR-RES ovarian
# OVCAR-4 ovarian = test system: OVCAR-4 ovarian
# OVCAR-5 ovarian = test system: OVCAR-5 ovarian
# OVCAR-8 ovarian = test system: OVCAR-8 ovarian
# PC-3 prostate = test system: PC-3 prostate
# RPMI-8226 leukemia = test system: RPMI-8226 leukemia
# RXF 393 renal = test system: RXF 393 renal
# SF-268 CNS = test system: SF-268 CNS
# SF-295 CNS = test system: SF-295 CNS
# SF-539 CNS = test system: SF-539 CNS
# SK-MEL-2 melanoma = test system: SK-MEL-2 melanoma
# SK-MEL-28 melanoma = test system: SK-MEL-28 melanoma
# SK-MEL-5 melanoma = test system: SK-MEL-5 melanoma
# SK-OV-3 ovarian = test system: SK-OV-3 ovarian
# SN12C renal = test system: SN12C renal
# SNB-19 CNS = test system: SNB-19 CNS
# SR leukemia = test system: SR leukemia
# SW-620 colon = test system: SW-620 colon
# T-47D breast = test system: T-47D breast
# TK-10 renal = test system: TK-10 renal
# U251 glioblastoma = test system: U251 glioblastoma
# UACC-257 melanoma = test system: UACC-257 melanoma
# UACC-62 melanoma = test system: UACC-62 melanoma
# UO-31 renal = test system: UO-31 renal
smiles,measurement,setting,value
CS(=O)(=O)OCCCCOS(C)(=O)=O,GI50,HL-60(TB) leukemia,17700 nM
same,GI50,MOLT-4 leukemia,9660 nM
same,TGI,MOLT-4 leukemia,21800 nM
C/C(=N\NC(=O)c1cccc(S(=O)(=O)N2CCN(C)CC2)c1)c1cc(Cl)ccc1O,GI50,786-0 renal,345 nM
same,TGI,786-0 renal,2210 nM
same,GI50,A498 renal,268 nM
same,TGI,A498 renal,20100 nM
same,GI50,A549 NSCLC,447 nM
same,TGI,A549 NSCLC,> 100000 nM
same,GI50,ACHN renal,627 nM
same,TGI,ACHN renal,13400 nM
same,GI50,BT-549 breast,351 nM
same,TGI,BT-549 breast,4190 nM
same,GI50,CAKI-1 renal,472 nM
same,TGI,CAKI-1 renal,10200 nM
same,GI50,CCRF-CEM leukemia,216 nM
same,TGI,CCRF-CEM leukemia,1070 nM
same,GI50,COLO 205 colon,236 nM
same,TGI,COLO 205 colon,594 nM
same,GI50,DU-145 prostate,534 nM
same,TGI,DU-145 prostate,11600 nM
same,GI50,HCC-2998 colon,54.5 nM
same,TGI,HCC-2998 colon,15000 nM
same,GI50,HCT-116 colon,425 nM
same,TGI,HCT-116 colon,2020 nM
same,GI50,HCT-15 colon,301 nM
same,TGI,HCT-15 colon,12900 nM
same,GI50,HL-60(TB) leukemia,442 nM
same,TGI,HL-60(TB) leukemia,1220 nM
same,GI50,HOP-62 NSCLC,142 nM
same,TGI,HOP-62 NSCLC,898 nM
same,GI50,HOP-92 NSCLC,573 nM
same,TGI,HOP-92 NSCLC,6820 nM
same,GI50,HT29 colon,439 nM
same,TGI,HT29 colon,13600 nM
same,GI50,IGROV1 ovarian,339 nM
same,TGI,IGROV1 ovarian,2750 nM
same,GI50,K-562 leukemia,2620 nM
same,TGI,K-562 leukemia,13800 nM
same,GI50,KM12 colon,541 nM
same,TGI,KM12 colon,14700 nM
same,GI50,LOX IMVI melanoma,644 nM
same,TGI,LOX IMVI melanoma,2030 nM
same,GI50,M14 melanoma,247 nM
same,TGI,M14 melanoma,1990 nM
same,GI50,MALME-3M melanoma,641 nM
same,TGI,MALME-3M melanoma,8520 nM
same,GI50,MCF7 breast,594 nM
same,TGI,MCF7 breast,8010 nM
same,GI50,MDA-MB-435 melanoma,557 nM
same,TGI,MDA-MB-435 melanoma,74200 nM
same,GI50,MDA-MB-468 breast,177 nM
same,TGI,MDA-MB-468 breast,382 nM
same,GI50,MOLT-4 leukemia,114 nM
same,TGI,MOLT-4 leukemia,240 nM
same,GI50,NCI-H226 lung,523 nM
same,TGI,NCI-H226 lung,3450 nM
same,GI50,NCI-H23 lung,236 nM
same,TGI,NCI-H23 lung,590 nM
same,GI50,NCI-H322M lung,231 nM
same,TGI,NCI-H322M lung,32000 nM
same,GI50,NCI-H460 NSCLC,296 nM
same,TGI,NCI-H460 NSCLC,1210 nM
same,GI50,NCI-H522 lung,471 nM
same,TGI,NCI-H522 lung,12000 nM
same,GI50,NCI/ADR-RES ovarian,777 nM
same,TGI,NCI/ADR-RES ovarian,2360 nM
same,GI50,OVCAR-4 ovarian,201 nM
same,TGI,OVCAR-4 ovarian,29000 nM
same,GI50,OVCAR-5 ovarian,455 nM
same,TGI,OVCAR-5 ovarian,35300 nM
same,GI50,OVCAR-8 ovarian,477 nM
same,TGI,OVCAR-8 ovarian,1950 nM
same,GI50,PC-3 prostate,1160 nM
same,TGI,PC-3 prostate,17400 nM
same,GI50,RPMI-8226 leukemia,339 nM
same,TGI,RPMI-8226 leukemia,1180 nM
same,GI50,RXF 393 renal,43 nM
same,TGI,RXF 393 renal,557 nM
same,GI50,SF-268 CNS,141 nM
same,TGI,SF-268 CNS,2150 nM
same,GI50,SF-295 CNS,250 nM
same,TGI,SF-295 CNS,1310 nM
same,GI50,SF-539 CNS,442 nM
same,TGI,SF-539 CNS,3310 nM
same,GI50,SK-MEL-2 melanoma,567 nM
same,TGI,SK-MEL-2 melanoma,3580 nM
same,GI50,SK-MEL-28 melanoma,134 nM
same,TGI,SK-MEL-28 melanoma,14300 nM
same,GI50,SK-MEL-5 melanoma,62 nM
same,TGI,SK-MEL-5 melanoma,441 nM
same,GI50,SK-OV-3 ovarian,422 nM
same,TGI,SK-OV-3 ovarian,57200 nM
same,GI50,SN12C renal,735 nM
same,TGI,SN12C renal,3360 nM
same,GI50,SNB-19 CNS,1060 nM
same,TGI,SNB-19 CNS,6020 nM
same,GI50,SR leukemia,144 nM
same,TGI,SR leukemia,287 nM
same,GI50,SW-620 colon,1640 nM
same,TGI,SW-620 colon,19000 nM
same,GI50,T-47D breast,657 nM
same,TGI,T-47D breast,9270 nM
same,GI50,TK-10 renal,642 nM
same,TGI,TK-10 renal,19800 nM
same,GI50,U251 glioblastoma,478 nM
same,TGI,U251 glioblastoma,8250 nM
same,GI50,UACC-257 melanoma,521 nM
same,TGI,UACC-257 melanoma,3980 nM
same,GI50,UACC-62 melanoma,544 nM
same,TGI,UACC-62 melanoma,2860 nM
same,GI50,UO-31 renal,489 nM
same,TGI,UO-31 renal,8090 nM
